{"source": "patent US20190070208A1", "about": "“USE OF TRIACETYL-3-HYDROXYPHENYLADENOSINE IN PREPARING PHARMACEUTICALS FOR TREATMENT OF ATHEROSCLEROSIS” (priority 2016, published 2019)", "format_in_all_cases": "in vivo", "design_in_all_cases": "unit not given here", "key": {"[1]": {"system": "circulating blood mononuclear cells", "assay": "Circulating blood mononuclear cells of high-fat-fed apoE-/- mice (flow cytometry)", "details": "gavage once a day, high-fat diet apoE-/- mice", "experimental": "(§1) ApoE-/-mice (C57BL background), 5-7 weeks old, body weight 18-22 g, male, SPF grade; Purchased from Beijing institute of Laboratory Animal Science.\n(§2) After 7 days of adaptive feeding, animals were randomly divided into a high-fat feedstuff group (n=7), an MMH007 low-dose group (50 mg/kg, n=7), an IMMH007 medium-dose group (100 mg/kg, n=7), and an IMMH007 high-dose group (200 mg/kg, n=9), and they were administered once a day by gavage. The animals were fed in the Second Department of Animal Experiment Center of the Institute of Materia Medica (IMM) at Chinese Academy of Medical Sciences (CAMS); the feeding condition was SPF grade, the temperature was 21±2 DEG C, relative humidity was 50±5%, lighting cycle was 12/12, and 5 per cage. All groups were given high-fat diet (70% of basal diet plus 20% of lard and 0.2% of cholesterol) and the animals were free to take food and drink. The feedstuff was produced by Beijing HFK Bioscience Co., Ltd. Body weight was recorded once every week during the experiment.\n(§3) The animals were fasted for 12 hours and the following cells were extracted:\n(§4) Recirculating blood cells: 50 ul of blood was taken by cardiocentesis, placed in 450 ul of heparin anticoagulant, 1 ml of red blood cell lysis buffer was added, lysed for 10 minutes, centrifuged at 1800 r for 3 min, the supernatant was aspirated, and 100 ul of PBS suspension cells were obtained for subsequent use. The mouse was taken blood from the angular vein to be dead and serum was separated and stored at −80 DEG C.\n(§5) Antibodies were added to the above blood cells:\n(§6) 3 ul of CD90-PE, 3 ul of B220-PE, 3 ul of CD49b-PE, 3 ul of NK1.1-PE, 3 ul of Ly-6G-PE, 6 ul of CD11b-percp, and 3 ul of Ly-6C-FITC, a single positive tube and a blank control tube were provided, they were incubated with smoothie for 30 min, washed 3 times with PBS, and re-selected cells with 400 ul of PBS, filtered, and flow cytometry was carried out. The mononuclear cells were identified as CD11b^hiCD90^loB220^loCD49b^loNK1.1^loLy-6G^lo cells. […]"}, "[2]": {"system": "circulating blood mononuclear cells", "assay": "Circulating blood mononuclear cells of high-fat-fed Syrian golden hamsters (whole blood cell analyzer)", "details": "gavage twice a day, high-fat feedstuff hamsters, individual animal values (n=13)", "experimental": "[…] Syrian golden hamsters (LVG hamsters, introduced from Charles River Laboratories) aged 6-8 weeks, weighing 90-120 g, male, SPF grade and purchased from Beijing Vital River Laboratory Animal Technology Co., Ltd.\nAfter 7 days of adaptive feeding, animals were randomly divided into a normal control group (n=13), a high-fat feedstuff group (n=13), an IMMH007 low-dose group (50 mg/kg, n=13), an IMMH007 medium-dose group (100 mg/kg, n=13), and an IMMH007 high-dose group (200 mg/kg, n=13), and they were administered twice a day by gavage. The animals were fed in the Second Department of Animal Experiment Center of the Institute of Materia Medica (IMM) at Chinese Academy of Medical Sciences (CAMS); the feeding condition was SPF grade, the temperature was 21±2 DEG C, relative humidity was 50±5%, lighting cycle was 12/12, and 5 per cage. The normal group was fed with normal basal feedstuff, and the high-fat feedstuff group was fed with high fat feedstuff (79.8% of basal feedstuff, 20% of lard, and 0.2% of cholesterol), and the animals were free to take food and drink. The feedstuff was produced by Beijing HFK Bioscience Co., Ltd.\nThe animals were fasted for 12 hours, and about 200 ul of blood was taken from the canthus of each eye, the blood was dissolved in 30ul of EDTA-2K anticoagulant (20g/L, prepared with normal saline), mixed slightly to avoid coagulation, and the whole blood cells were analyzed by a whole blood cell analyzer."}, "[3]": {"system": "circulating blood inflammatory mononuclear cells (Ly6C^hi)", "assay": "Circulating blood inflammatory (Ly6Chi) mononuclear cells of high-fat-fed apoE-/- mice (flow cytometry)", "details": "gavage once a day, high-fat diet apoE-/- mice", "experimental": "as §1, §2, §3, §4, §5, §6"}, "[4]": {"details": "IMM-H007 50 mg/kg, individual animal values (n=7), 50 mg/kg"}, "[5]": {"details": "IMM-H007 100 mg/kg, individual animal values (n=7), 100 mg/kg"}, "[6]": {"details": "IMM-H007 200 mg/kg, individual animal values (n=9), 200 mg/kg"}}, "note": "“And” between values parts separate entries of the source, which are not always exact repeats. Identical values can stand only once.", "data": [{"smiles": "CC(=O)OCC1OC(n2cnc3c(Nc4cccc(O)c4)ncnc32)C(OC(C)=O)C1OC(C)=O", "note": "(stereo not drawn) [IMM-H007, Triacetyl-3-Hydroxyphenyladenosine]", "values": [{"measurement": "circulating blood mononuclear cells", "setting": "[1]; [4]", "result": "0.54 and 0.49 (2×) and 1.23 and 0.66 and 0.63 and 0.26"}, {"measurement": "circulating blood mononuclear cells", "setting": "[1]; [5]", "result": "0.79 and 0.48 and 0.30 and 0.14 and 0.29 and 0.27 and 0.25"}, {"measurement": "circulating blood mononuclear cells", "setting": "[1]; [6]", "result": "0.18 (2×) and 0.69 and 0.28 and 0.24 and 0.27 and 0.23 and 0.21 and 0.10"}, {"measurement": "circulating blood mononuclear cells", "setting": "[2]; IMM-H007 50 mg/kg, 50 mg/kg", "result": "6.63 and 5.31 and 7.58 and 11.2 and 10.1 and 11 and 10.4 and 9.08 and 6.95 and 8.24 and 9.21 and 6.5 and 8.91"}, {"measurement": "circulating blood mononuclear cells", "setting": "[2]; IMM-H007 100 mg/kg, 100 mg/kg", "result": "6.23 and 4.18 and 3.87 and 6.05 and 6.02 and 7.99 and 6.79 and 9.61 and 6.42 and 10.4 and 6.8 and 7.54 and 4.56"}, {"measurement": "circulating blood mononuclear cells", "setting": "[2]; IMM-H007 200 mg/kg, 200 mg/kg", "result": "4.42 and 6.33 and 9.94 and 9.51 and 10.3 (2×) and 6.28 and 9.61 and 9.85 and 10.8 and 8.52 and 9.23 and 5.7"}, {"measurement": "circulating blood inflammatory mononuclear cells", "setting": "[3]; [4]", "result": "0.33 and 0.86 and 0.18 and 0.23 and 0.89 and 0.16 and 0.49"}, {"measurement": "circulating blood inflammatory mononuclear cells", "setting": "[3]; [5]", "result": "0.31 and 0.19 and 0.32 and 0.29 and 0.30 and 0.89 and 0.26"}, {"measurement": "circulating blood inflammatory mononuclear cells", "setting": "[3]; [6]", "result": "0.19 and 0.35 and 0.17 and 0.20 and 0.30 and 0.13 and 0.15 and 0.28 and 0.21"}]}]}
